System: human skin explants
Test: Colouring effect on human skin explants under survival conditions (ex vivo model)
Assay type: cell-based
Details: 72 hours, C-Cube Dermoscope colorimetric differences, four donors
Experimental: Owing to the lack of cell and animal pharmacological models, the inventors developed an ex vivo model in order to overcome the difficulties related to absorption of the active agents. Indeed, there is no absorption of crocin without intestinal hydrolysis first and low assimilation of crocetin and of these derivatives after passage.
The objective of this study was to evaluate the colouring effect of various extracts applied to human skin explants under survival conditions over 72 hours. Maintenance under survival conditions is carried out in 6-well culture plates containing culture medium. These culture plates are placed in an incubator at 37° C. with 5% CO2. The studies were carried out on four donors.
The colouring of each medium containing active agents or control is evaluated with the C-Cube Dermoscope (Clinical Edition) from Pixience SAS. The evaluation concerns the maximum colouring which can be obtained, i.e., the 100% level on the colour mapping scale relating to each active agent. The colouring of each explant is measured using the C-Cube Dermoscope (Clinical Edition). First, the explant is placed in a solution of medium with no active agent in order to rinse the explant of the active agent molecules present on the explant surface and which have not penetrated the skin. […]

Q: For `CC(/C=C/C=C(\C)C(=O)O)=C\C=C\C=C(C)\C=C\C=C(/C)C(=O)O` [crocetin], which colouring strength is on record?
A: high colouring strength
